From patent publication US9049866B2, “Synergistic herbicidal combination of clomazone and pethoxamid” (CHEMINOVA A/S, priority 2008, dated 2015)

Key:
Format in all cases: in vivo
[1] = system: Solanum nigrum; experiment: Field test in sunflowers, control of Solanum nigrum (Example 1); conditions: sunflower field, spraying, clomazone 90 g/ha, pethoxamid 1200 g/ha, combination 90+1200 g/ha, 55 days after application
From the text: (§1) In the Colby method, also referred to as the Limpels method, the action to be expected E for a given active ingredient combination obeys the so-called Colby formula. According to Colby, the expected action of active ingredients A+B using p+q ppm of active ingredient is:
(§2) [formula] where ppm=milligrams of active ingredient (=a.i.) per liter of spray mixture X=% action by component A using p ppm of active ingredient Y=% action by component B using q ppm of active ingredient. If the ratio R defined as the action actually observed (O) divided by the expected action (E) is >1 then the action of the combination is superadditive, i.e. there is a synergistic effect. […]
(§3) The herbicidal compounds A and B were applied in the formulation in which they are present as commercially available product. Damage by the herbicidal compositions was evaluated with reference to a scale of 0% to 100% in comparison with untreated control plots. […]
(§4) In a field of sunflowers, clomazone (rate of 90 g/ha) and pethoxamid (rate of 1200 g/ha) were applied individually and in combination (90+1200 g/ha) to different plots by spraying. 55 days after application the rate of control of various weeds was recorded. The expected control is calculated according to the Colby method.

[2] = system: Ambrosia artemisiifolia; experiment: Field test in sunflowers, control of Ambrosia artemisiifolia (Example 2); conditions: sunflower field, spraying, clomazone 90 g/ha, pethoxamid 1200 g/ha, combination 90+1200 g/ha, 50 days after application
From the text: as §1, §2, §3
as §4, with “50” for “55”

[3] = system: Viola arvensis; experiment: Oilseed rape field test, control of Viola arvensis (Example 3); conditions: spraying, clomazone 72, pethoxamid 1200, combination 72 + 1200 g AI/hectare, 206 days after application
From the text: as §1, §2, §3
In an oilseed rape field, Clomazone, and pethoxamid were applied individually and in combination to different plots by spraying. 206 days after application the rate of control of Viola arvensis was recorded. The expected control is calculated according to the Colby method.

[4] = system: Echinochloa crus-galli; experiment: Field test in sunflowers, control of Echinochloa crus-galli (Example 1); conditions: sunflower field, spraying, clomazone 90 g/ha, pethoxamid 1200 g/ha, combination 90+1200 g/ha, 55 days after application, 0 = no damage, 100 = complete destruction
From the text: as §1, §2, §3, §4

[5] = system: Galium aparine; experiment: Oilseed rape field test, control of Galium aparine (Example 4); conditions: spraying, clomazone 72, pethoxamid 1200, combination 72 + 1200 g AI/hectare, 64 days after application
From the text: as §1, §2, §3
In an oilseed rape field, Clomazone, and pethoxamid were applied individually and in combination to different plots by spraying. 64 days after application the rate of control of Galium aparine was recorded. The expected control is calculated according to the Colby method.

[6] = system: Mercurialis annua; experiment: Field test in sunflowers, control of Mercurialis annua (Example 2); conditions: sunflower field, spraying, clomazone 90 g/ha, pethoxamid 1200 g/ha, combination 90+1200 g/ha, 50 days after application
From the text: as §1, §2, §3
as §4, with “50” for “55”

| Compound | Control observed (O) % [1] [%] | Control observed (O) % [2] [%] | Control observed (O) % [3] [%] | Control observed (O) % [4] [%] | Control observed (O) % [5] [%] | Control observed (O) % [6] [%] |
| --- | --- | --- | --- | --- | --- | --- |
| CCOCCN(C(=O)CCl)C(=C(C)C)c1ccccc1 [Pethoxamid, pethoxamid] | 47 | 10 | 50 | 47 | 0 | 27 |
| CC1(C)CON(Cc2ccccc2Cl)C1=O [Clomazone, clomazone] | 37 | 10 | 0 | 50 | 40 | 13 |
